Square brackets hold non-standard residues; d marks the D form. Peptide text beside a SMILES is read from it. Dmt = Cc1cc(O)cc(C)c1C[C@H](N)C(=O)O; Orn = NCCC[C@H](N)C(=O)O

The first assay deals with A549 lung cancer cell. Format: cell-based, human. The conditions noted are these: 24 h. As for the experimental part: (B) Inhibition of PSD activity by the 2F3 (●) or 1C11 (◯) peptide. PSD activity was measured using the DSB-3 method. (C-E) Cell proliferation inhibition following incubation of A549 cells with the indicated mitochondria- or nuclear-targeted peptides for 24 h in a serum-free medium, and cell proliferation was assayed using the SRB method. Results are the means±SEM (n=3). (F) A549 cells were incubated for 90 min with 5 μM of the mitochondria- or nuclear targeted FITC-labelled peptides, immunostained with anti-SMAC antibodies and with DAPI and visualized by confocal microscope for subcellular localization. Arrows indicates nuclear (n=3). Scale bars represent 20
(A) A549 cells were incubated with the indicated concentration of 1C11-HTRA2-derived peptide targeted to the mitochondrion with the targeting sequence added to the N-terminus (N-Ter) or the C-terminus (C-Ter). (B) Mitochondrion targeted 1C11-HTRA2-derived peptide was modified by replacing the three amino acids in the C or the N-terminus of the peptide, or all amino acids in the peptide with the D-confirmation of the amino acid (underlined amino acids)). Following 24 h incubation in a serum-free medium, cell proliferation was assayed using the SRB method. (C) The concentration required for 50% inhibition of cell proliferation (IC50) is presented. Results are the means±SEM (n=3).
A549 (human lung adenocarcinoma epithelial cell), HEK-293T (human embryonic kidney), H1563/CRL-5875 (non-small cell lung cancer adenocarcinoma), H-358 (bronchioalveolar carcinoma), HaCaT (spontaneously transformed aneuploid immortal human skin keratinocyte), and WI-38 (fibroblast-like fetal lung cell) cell lines were purchased from the American Type Culture Collection (ATCC) (Manassas, VA), and were maintained as per ATCC instructions. Cells were maintained in ATCC recommended medium at 37° C. in an incubator with 5% CO2. Cell lines were routinely tested for Mycoplasma contamination. For SMAC overexpression, cells were seeded (200,000 cells/well) on 6-well culture plates and allowed to adhere overnight. These adhered cells were transfected with PVMV3.1-SMAC or empty vector using the JetPRIME transfection reagent (Illkirch, France), according to the manufacturers' instructions. Medium was changed 6 h post transfection, and cells were harvested 48 h post transfection.
Cells were seeded in 96-well cell culture plates (8,000/well) and allowed to grow for 48 h. After washing with PBS, cells were fixed with 10% trichloroacetic acid, and stained with SRB for 20 min. Excess SRB were removed, and cells were washed with 1% acetic acid. SRB extraction was done using 100 mM Tris-base, and absorbance at 510 nm was determined using an Infinite M1000 plate reader (Tecan, Mannedorf, Switzerland).
The compound `CC(C)C[C@H](NC(=O)[C@H](CCCNC(=N)N)NC(=O)[C@H](C)NC(=O)[C@H](Cc1c[nH]c2ccccc12)NC(=O)[C@H](CC(C)C)NC(=O)[C@H](CO)NC(=O)[C@@H]1CCCN1C(=O)[C@@H](NC(=O)CNC(=O)[C@H](Cc1ccc(O)cc1)NC(=O)[C@@H](NC(=O)[C@@H](NC(=O)[C@H](CCCNC(=N)N)NC(=O)[C@H](C)NC(=O)[C@H](CCCNC(=N)N)NC(=O)[C@@H]1CCCN1C(=O)[C@H](CC(=O)O)NC(=O)[C@H](CO)NC(=O)[C@@H](NC(=O)CNC(=O)[C@H](CO)NC(=O)[C@@H](NC(=O)[C@H](CC(C)C)NC(=O)[C@H](CC(C)C)NC(=O)[C@H](C)NC(=O)[C@H](CCCCN)NC(=O)[C@H](CCCNC(=N)N)NC(=O)[C@@H](CCCNC(=N)N)NC(=O)[C@@H](N)CCCNC(=N)N)[C@@H](C)O)[C@@H](C)O)C(C)C)[C@@H](C)O)[C@@H](C)O)C(=O)O` [R-{D-Arg}-RK-1C11] (H-R[dR]RKALLTSGTSDPRARVTYGTPSLWARL-OH; N-terminus and C-terminus assumed) gave an IC50 of 66.5 ± 3.9 µM.
Same read-out and setting: next, `CC(C)C[C@H](NC(=O)[C@H](CC(=O)O)NC(=O)[C@H](CO)NC(=O)[C@H](CO)NC(=O)[C@H](Cc1c[nH]cn1)NC(=O)[C@H](CC(=O)O)NC(=O)[C@@H](NC(=O)CNC(=O)[C@H](CCC(N)=O)NC(=O)[C@H](Cc1ccccc1)NC(=O)[C@H](C)NC(=O)[C@H](CCCNC(=N)N)NC(=O)[C@H](CO)NC(=O)[C@H](CO)NC(=O)[C@H](CCC(N)=O)NC(=O)[C@H](CC(N)=O)NC(=O)[C@@H]1CCCN1)[C@@H](C)O)C(=O)N[C@@H](C)C(=O)N[C@@H](Cc1ccccc1)C(=O)N[C@@H](CC(=O)O)C(=O)N[C@@H](Cc1ccccc1)C(=O)N[C@@H](CC(C)C)C(=O)N[C@@H](CO)C(=O)N[C@@H](CCC(N)=O)C(=O)N[C@@H](CCC(N)=O)C(=O)N[C@@H](CCCNC(=N)N)C(=O)N[C@H](CCCNC(=N)N)C(=O)N[C@@H](CCCNC(=N)N)C(=O)N[C@@H](CCCCN)C(=O)O` [2I8-R-{D-Arg}-RK] (H-PNQSSRAFQGTDHSSDLAFDFLSQQR[dR]RK-OH; N-terminus and C-terminus assumed): 19.7 ± 4.3 µM; `CC[C@H](C)[C@H](NC(=O)[C@@H]1CCCN1C(=O)[C@H](CO)NC(=O)[C@H](CO)NC(=O)[C@@H](NC(=O)[C@H](CO)NC(=O)[C@H](CC(C)C)NC(=O)[C@H](C)NC(=O)[C@H](Cc1ccccc1)NC(=O)[C@H](CCCN)NC(=O)[C@H](Cc1c(C)cc(O)cc1C)NC(=O)[C@H](N)CCCNC(=N)N)[C@@H](C)O)C(=O)N1CCC[C@H]1C(=O)N[C@@H](CO)C(=O)N[C@H](C(=O)N1CCC[C@H]1C(=O)N[C@@H](CCC(N)=O)C(=O)N[C@@H](CO)C(=O)N[C@@H](CCC(N)=O)C(=O)N[C@@H](C)C(=O)N[C@@H](CCC(N)=O)C(=O)N1CCC[C@H]1C(=O)N[C@@H](CCC(N)=O)C(=O)N[C@H](C(=O)NCC(=O)N[C@@H](CO)C(=O)NCC(=O)N[C@@H](C)C(=O)N[C@@H](CO)C(=O)O)[C@@H](C)O)C(C)C` [H-(D-Arg)-Dmt-Orn-Phe-2F3] (H-[dR][Dmt][Orn]FALSTSSPIPSVPQSQAQPQTGSGAS-OH; C-terminus assumed): over 100 µM; `CC[C@H](C)[C@H](NC(=O)[C@@H](NC(=O)[C@H](CC(N)=O)NC(=O)[C@H](C)NC(=O)[C@H](CCCCN)NC(=O)[C@H](CC(C)C)NC(=O)[C@H](CC(C)C)NC(=O)[C@H](CC(N)=O)NC(=O)[C@H](CC(=O)O)NC(=O)[C@H](CC(C)C)NC(=O)[C@@H](NC(=O)[C@@H]1CCCN1C(=O)[C@H](CC(C)C)NC(=O)[C@@H](NC(=O)[C@H](CS)NC(=O)[C@@H](NC(=O)[C@H](CC(C)C)NC(=O)[C@H](CCC(N)=O)NC(=O)[C@H](CCC(N)=O)NC(=O)[C@@H](N)Cc1ccccc1)[C@@H](C)O)C(C)C)[C@@H](C)CC)C(C)C)C(=O)N[C@@H](CC(N)=O)C(=O)N[C@@H](CCCCN)C(=O)N[C@@H](CCC(N)=O)C(=O)N[C@@H](CCC(=O)O)C(=O)N[C@@H](Cc1c[nH]cn1)C(=O)N[C@H](CCCNC(=N)N)C(=O)N[C@@H](Cc1c(C)cc(O)cc1C)C(=O)N[C@@H](CCCN)C(=O)N[C@@H](Cc1ccccc1)C(N)=O` [1E14-D-Arg-Dmt-Orn-Phe] (H-FQQLTCVLPILDNLLKANVINKQEH[dR][Dmt][Orn]F-NH2; N-terminus and C-terminus assumed): over 100 µM.
The same measure, in the same setting: the value for `CC(C)C[C@H](NC(=O)[C@H](CC(=O)O)NC(=O)[C@H](CO)NC(=O)[C@H](CO)NC(=O)[C@H](Cc1c[nH]cn1)NC(=O)[C@H](CC(=O)O)NC(=O)[C@@H](NC(=O)CNC(=O)[C@H](CCC(N)=O)NC(=O)[C@H](Cc1ccccc1)NC(=O)[C@H](C)NC(=O)[C@H](CCCNC(=N)N)NC(=O)[C@H](CO)NC(=O)[C@H](CO)NC(=O)[C@H](CCC(N)=O)NC(=O)[C@H](CC(N)=O)NC(=O)[C@@H]1CCCN1C(=O)[C@H](CCCCN)NC(=O)[C@H](CCCNC(=N)N)NC(=O)[C@@H](CCCNC(=N)N)NC(=O)[C@@H](N)CCCNC(=N)N)[C@@H](C)O)C(=O)N[C@@H](C)C(=O)N[C@@H](Cc1ccccc1)C(=O)N[C@@H](CC(=O)O)C(=O)N[C@@H](Cc1ccccc1)C(=O)N[C@@H](CC(C)C)C(=O)N[C@@H](CO)C(=O)N[C@@H](CCC(N)=O)C(=O)N[C@@H](CCC(N)=O)C(=O)O` [R-{D-Arg}-RK-2I8] (H-R[dR]RKPNQSSRAFQGTDHSSDLAFDFLSQQ-OH; N-terminus and C-terminus assumed) was over 100 µM; that for `Cc1cc(O)cc(C)c1C[C@H](NC(=O)[C@H](N)CCCNC(=N)N)C(=O)N[C@@H](CCCN)C(=O)N[C@@H](Cc1ccccc1)C(=O)N[C@@H](C)C(=O)N[C@@H](CC(C)C)C(=O)N[C@@H](CC(C)C)C(=O)N[C@H](C(=O)N[C@@H](CO)C(=O)NCC(=O)N[C@H](C(=O)N[C@@H](CO)C(=O)N[C@@H](CC(=O)O)C(=O)N1CCC[C@H]1C(=O)N[C@@H](CCCNC(=N)N)C(=O)N[C@@H](C)C(=O)N[C@@H](CCCNC(=N)N)C(=O)N[C@H](C(=O)N[C@H](C(=O)N[C@@H](Cc1ccc(O)cc1)C(=O)NCC(=O)N[C@H](C(=O)N1CCC[C@H]1C(=O)N[C@@H](CO)C(=O)N[C@@H](CC(C)C)C(=O)N[C@@H](Cc1c[nH]c2ccccc12)C(=O)N[C@@H](C)C(=O)N[C@@H](CCCNC(=N)N)C(=O)N[C@@H](CC(C)C)C(=O)O)[C@@H](C)O)[C@@H](C)O)C(C)C)[C@@H](C)O)[C@@H](C)O` [D-Arg-Dmt-Orn-Phe-1C11] (H-[dR][Dmt][Orn]FALLTSGTSDPRARVTYGTPSLWARL-OH; N-terminus and C-terminus assumed) was 89.3 ± 5.49 µM.
Still for that read-out and setting: next, `CC[C@H](C)[C@H](NC(=O)[C@@H]1CCCN1C(=O)[C@H](CO)NC(=O)[C@H](CO)NC(=O)[C@@H](NC(=O)[C@H](CO)NC(=O)[C@H](CC(C)C)NC(=O)[C@H](C)N)[C@@H](C)O)C(=O)N1CCC[C@H]1C(=O)N[C@@H](CO)C(=O)N[C@H](C(=O)N1CCC[C@H]1C(=O)N[C@@H](CCC(N)=O)C(=O)N[C@@H](CO)C(=O)N[C@@H](CCC(N)=O)C(=O)N[C@@H](C)C(=O)N[C@@H](CCC(N)=O)C(=O)N1CCC[C@H]1C(=O)N[C@@H](CCC(N)=O)C(=O)N[C@H](C(=O)NCC(=O)N[C@@H](CO)C(=O)NCC(=O)N[C@@H](C)C(=O)N[C@@H](CO)C(=O)N[C@@H](CCCNC(=N)N)C(=O)N[C@H](CCCNC(=N)N)C(=O)N[C@@H](CCCNC(=N)N)C(=O)N[C@@H](CCCCN)C(=O)O)[C@@H](C)O)C(C)C` [2F3-R-{D-Arg}-RK] (H-ALSTSSPIPSVPQSQAQPQTGSGASR[dR]RK-OH; N-terminus and C-terminus assumed): 29.6 ± 0.6 µM; `CC[C@H](C)[C@H](NC(=O)[C@@H](NC(=O)[C@H](CC(N)=O)NC(=O)[C@H](C)NC(=O)[C@H](CCCCN)NC(=O)[C@H](CC(C)C)NC(=O)[C@H](CC(C)C)NC(=O)[C@H](CC(N)=O)NC(=O)[C@H](CC(=O)O)NC(=O)[C@H](CC(C)C)NC(=O)[C@@H](NC(=O)[C@@H]1CCCN1C(=O)[C@H](CC(C)C)NC(=O)[C@@H](NC(=O)[C@H](CS)NC(=O)[C@@H](NC(=O)[C@H](CC(C)C)NC(=O)[C@H](CCC(N)=O)NC(=O)[C@H](CCC(N)=O)NC(=O)[C@H](Cc1ccccc1)NC(=O)[C@H](Cc1ccccc1)NC(=O)[C@H](CCCN)NC(=O)[C@H](Cc1c(C)cc(O)cc1C)NC(=O)[C@H](N)CCCNC(=N)N)[C@@H](C)O)C(C)C)[C@@H](C)CC)C(C)C)C(=O)N[C@@H](CC(N)=O)C(=O)N[C@@H](CCCCN)C(=O)N[C@@H](CCC(N)=O)C(=O)N[C@@H](CCC(=O)O)C(=O)N[C@@H](Cc1c[nH]cn1)C(=O)O` [D-Arg-Dmt-Orn-Phe-1E14] (H-[dR][Dmt][Orn]FFQQLTCVLPILDNLLKANVINKQEH-OH; N-terminus and C-terminus assumed): over 100 µM.

The assay is the same for the next values; noted with them: targeted to the mitochondria or the nucleus.
Regarding FQQLTCVLPILDNLLKANVINKQEH [1E14], the “effect on cell growth” value is “no effect on cell growth”.

For orientation: IC50 means the concentration that gives 50% inhibition. Read a high IC50 as lower potency.

Values taken from patent US20250051409A1, “MODULATORS OF PHOSPHATIDYLSERlNE DECARBOXYLASE AND USE THEREOF” (THE NATIONAL INSTITUTE FOR BIOTECHNOLOGY IN THE NEGEV LTD., priority 2021, published 2025).
